Laboratory results taken from US12091561B2, “Recording method and recording apparatus” (Seiko Epson Corporation, priority 2021, dated 2024).

Experimental: The solubility is measured as described below. A predetermined amount of a compound is mixed with 100 g of water in an environment at 25° C. and is then stirred for 30 minutes. […] As described above, when a predetermined amount of the compound is mixed with 100 g of water, the maximum predetermined amount which is judged to be dissolved is used as the solubility.

Compound | SOLUBILITY [g/100 g OF WATER]
OC1CCCCC1O (stereo not drawn) [1,2-CYCLOHEXANEDIOL, 1,2-cyclohexanediol] | >100 g/100 g OF WATER
CC(C)(O)CCC(C)(C)O [2,5-dimethyl-2,5-hexanediol] | 14 g/100 g OF WATER
CC(C)(CO)CO [NEOPENTYL GLYCOL, neopentyl glycol] | 80 g/100 g OF WATER
CC(C)(O)C(C)(C)O [PINACOL, pinacol] | ∞
CC(O)CO (stereo not drawn) [PROPYLENE GLYCOL, propylene glycol] | ∞
O=C1CCCCCN1 [ε-CAPROLACTAM, ε-caprolactam] | >100 g/100 g OF WATER
